As usually defined, the fraction unbound is the share of the substance not bound to proteins or other matrix.

The nature of data set [1]: Fraction unbound in Hartley guinea pig brain homogenates at 1 uM after 6 hrs by equilibrium dialysis method. The note with it: brain homogenate. In general terms: In equilibrium dialysis free small molecules cross a membrane that holds back macromolecules.
A short description of data set [2]: Fraction unbound in cynomolgus monkey brain homogenates at 1 uM after 6 hrs by equilibrium dialysis method. To be noted: brain homogenate.
Data set [3] in a line: Fraction unbound in Sprague-Dawley rat brain homogenates at 1 uM after 6 hrs by equilibrium dialysis method. To be noted: brain homogenate.
Data set [4] in a line: Fraction unbound in Wistar Han rat brain homogenates at 1 uM after 6 hrs by equilibrium dialysis method. The note with it: brain homogenate.
The nature of data set [5]: Fraction unbound in human occipital cortex at 1 uM after 6 hrs by equilibrium dialysis method.
Data set [6] can be described thus: Fraction unbound in CD-1 mouse brain homogenates at 1 uM after 6 hrs by equilibrium dialysis method. To be noted: brain homogenate.
Data set [7] can be described thus: Fraction unbound in Beagle dog brain homogenates at 1 uM after 6 hrs by equilibrium dialysis method. The note with it: brain homogenate.

Turning to `Fc1ccc([C@@H]2CCNC[C@H]2COc2ccc3c(c2)OCO3)cc1` [PAROXETINE], the fraction unbound at 6 h, 1 µM in data set [1] amounted to 0.003; in data set [2] it was 0.006; in data set [3], 0.006; in data set [4], 0.004; in data set [5], 0.005; in data set [6], 0.004. In data set [7], this molecule yielded a fraction unbound at 6 h, 1 µM of 0.004.
On to `CCN(CC)C(=O)/C(C#N)=C/c1cc(O)c(O)c([N+](=O)[O-])c1` [ENTACAPONE], for which the fraction unbound at 6 h, 1 µM in data set [1] amounted to 0.019; in data set [2], 0.031; in data set [3], 0.017; in data set [4], 0.021; in data set [5], 0.025; in data set [6], 0.026. The molecule also returned a free fraction (fraction unbound) at 6 h, 1 µM in data set [7] of 0.02.
Take `Cc1nc2n(c(=O)c1CCN1CCC(c3noc4cc(F)ccc34)CC1)CCCC2O` (stereo not drawn) [PALIPERIDONE]: the fraction unbound at 6 h, 1 µM was determined as 0.101 in data set [1]; 0.1 in data set [2]; 0.078 in data set [3]; 0.092 in data set [4]; 0.116 in data set [5]; 0.129 in data set [6]. Also, the fraction unbound at 6 h, 1 µM in data set [7] was found to be 0.126.
With `Cc1ccc(C(=O)c2cc(O)c(O)c([N+](=O)[O-])c2)cc1` [TOLCAPONE], the fraction unbound at 6 h, 1 µM in data set [1] was 0.002; in data set [2], 0.003; in data set [3], 0.007; in data set [4], 0.001; in data set [5], 0.003; in data set [6], 0.002. The molecule further returned a fraction unbound at 6 h, 1 µM in data set [7] of 0.05.
Regarding `C[C@@H](O[C@H]1OCCN(Cc2n[nH]c(=O)[nH]2)[C@H]1c1ccc(F)cc1)c1cc(C(F)(F)F)cc(C(F)(F)F)c1` [APREPITANT], the fraction unbound at 6 h, 1 µM turned out to be 0.001 in data set [1]; 0.002 in data set [2]; 0.001 in data set [3]; 0.001 in data set [4]; 0.001 in data set [5]; 0.002 in data set [6]. The fraction unbound at 6 h, 1 µM in data set [7] was 0.001.
For the molecule `CC(C)C[C@H]1C(=O)N2CCC[C@H]2[C@]2(O)O[C@](NC(=O)[C@@H]3C=C4c5cccc6[nH]c(Br)c(c56)C[C@H]4N(C)C3)(C(C)C)C(=O)N12` [BROMOCRIPTINE], the fraction unbound at 6 h, 1 µM came to 0.002 in data set [1]; 0.002 in data set [2]; 0.001 in data set [3]; 0.002 in data set [4]; 0.002 in data set [5]; 0.002 in data set [6]. Further, the fraction unbound at 6 h, 1 µM in data set [7] was 0.002.
On to `NS(=O)(=O)Cc1noc2ccccc12` [ZONISAMIDE], for which the fraction unbound at 6 h, 1 µM in data set [1] was found to be 0.389; in data set [2], 0.386; in data set [3] it was 0.598; in data set [4], 0.327; in data set [5] it was 0.308; in data set [6], 0.299. Further, in data set [7], the fraction unbound at 6 h, 1 µM stood at 0.428.
Consider `CC(CC(c1ccccc1)c1ccccc1)NC(C)(C)C` (stereo not drawn) [TERODILINE], for which the unbound share (fraction unbound) at 6 h, 1 µM in data set [1] was 0.059; in data set [2], 0.071; in data set [3], 0.02; in data set [4], 0.025; in data set [5] it was 0.028; in data set [6], 0.049. For the same molecule, in data set [7], the fraction unbound at 6 h, 1 µM amounted to 0.148.
For the molecule `COC(=O)C1=C(C)NC(C)=C(C(=O)OCCN(C)Cc2ccccc2)C1c1cccc([N+](=O)[O-])c1` (stereo not drawn) [NICARDIPINE], the free fraction (fraction unbound) at 6 h, 1 µM in data set [1] was 0.004; in data set [2] it was 0.006; in data set [3], 0.008; in data set [4], 0.005; in data set [5], 0.006; in data set [6], 0.004. For the same molecule, in data set [7], the fraction unbound at 6 h, 1 µM is 0.006.

These data come from ChEMBL document CHEMBL3525956, “Species independence in brain tissue binding using brain homogenates” (Drug Metab Dispos, 2011).
